What all share (test): Synergistic antimicrobial activity as MIC, 96-well microplate, optical density at 620 nm
Format in all cases: cell-based
Holding throughout (settings): for microbial growth percentage: 0 A

Assay [1] deals with Staphylococcus aureus ATCC 6538. From the text:
(§1) FIC Index=(MIC of A with B/MIC of A)+(MIC of B with A/MIC of B [Math. 1]
(§2) with: • MIC of A with B: minimum concentration of product A in the combination A+B which makes it possible to obtain an inhibitory effect; • MIC of B with A: minimum concentration of product B in the combination A+B which makes it possible to obtain an inhibitory effect; • MIC of A: minimum inhibitory concentration of product A alone; • MIC of B: minimum inhibitory concentration of product B alone. This formula was described for the first time in the article by F. C. Kull, P. C. Eisman, H. D. Sylwestrowka, and R. L. Mayer, Applied Microbiology 9:538-541, 1961.
The microbial strain Staphylococcus aureus ATCC 6538 and a double-concentration nutrient broth liquid culture medium were used.
(§3) A 96-well microplate at an incubation temperature of 32.5° C. is used.
(§4) The incubation time of the microplate is: • from 24 to 30 h under aerobic conditions for microbial Aspergillus niger ATCC 6275; • from 18 to 24 h under aerobic conditions for Candida albicans ATCC 10231, Pseudomonas aeruginosa ATCC 9027 and Staphylococcus aureus ATCC 6538; • from 24 to 48 h under aerobic conditions for Enterococcus faecalis ATCC 33186.
(§5) For each compound: A=4-(3-ethoxy-4-hydroxyphenyl) butan-2-one compound B=alcohol compound A 10% (weight/volume) stock solution was prepared by mixing 1 g of compound in 9 ml of aqueous 1% agar solution. Successive dilutions were made with the 1% agar solution.
(§6) 50 μl of each of the daughter solutions obtained containing compound A or B are added to the microplate wells. 100 μl of Sabouraud liquid nutrient broth inoculated at double concentration with the Aspergillus niger strain and 50 μl of aqueous 1% agar solution are also added thereto.
(§7) 50 μl of each of the daughter solutions obtained containing compound A and 50 μl of each of the daughter solutions obtained containing compound B are added to the microplate wells. 100 μl of Sabouraud liquid nutrient broth inoculated at double concentration with the strain Aspergillus niger are also added thereto.
(§8) A positive microbial growth control was also prepared. The positive microbial growth control corresponds to a mixture of 100 μl of aqueous 1% agar solution with 100 μl of Sabouraud liquid nutrient broth inoculated at double concentration with the strain Aspergillus niger in the absence of compounds A and B.
(§9) An absorbance control was performed in parallel on compounds A and B alone. This control corresponds to 100 μl of double concentration sterile Sabouraud liquid nutrient broth+100 μl of double concentration compound A or B.
(§10) In the three cases (absorbance control, growth control and test), the final volume present in each of the microplate wells is 200 μl.
(§11) The test as described above (tests, absorbance control and growth control) was performed again to test the combination A+B on the following strains Enterococcus faecalis, Staphylococcus aureus, Pseudomonas aeruginosa, Candida albicans, where appropriate.

Assay [2] relates to Pseudomonas aeruginosa ATCC 9027. An excerpt:
(§12) with: • MIC of A with B: minimum concentration of product A in the combination A+B which makes it possible to obtain an inhibitory effect; • MIC of B with A: minimum concentration of product B in the combination A+B which makes it possible to obtain an inhibitory effect; • MIC of A: minimum inhibitory concentration of product A alone; • MIC of B: minimum inhibitory concentration of product B alone. This formula was described for the first time in the article by F. C. Kull, […], and R. L. Mayer, Applied Microbiology 9:538-541, 1961. […] When the FIC index value is less than or equal to 1, it is considered that the combination of test compounds has a synergistic effect. The microbial strain Pseudomonas aeruginosa ATCC 9027 and a double-concentration nutrient broth liquid culture medium were used. A 96-well microplate at an incubation temperature of 32.5° C. is used. […] For each compound: […] 50 μl of each of the daughter solutions obtained containing compound A and 50 μl of each of the daughter solutions obtained containing compound B are added to the microplate wells. 100 μl of Sabouraud liquid nutrient broth inoculated at double concentration with the strain Aspergillus niger are also added thereto. A positive microbial growth control was also prepared. […] An absorbance control was performed in parallel on compounds A and B alone. This control corresponds to 100 μl of double concentration sterile Sabouraud liquid nutrient broth+100 μl of double concentration compound A or B. […] The test as described above (tests, absorbance control and growth control) was performed again to test the combination A+B on the following strains Enterococcus faecalis, Staphylococcus aureus, Pseudomonas aeruginosa, Candida albicans, where appropriate.

Assay [3] deals with Enterococcus faecalis ATCC 33186.
Description: as §1, §2
The microbial strain Enterococcus faecalis ATCC 33186 and a double-concentration BHI (Brain Heart Infusion) broth liquid culture medium were used.
as §3, §4, §5, §6, §7, §8, §9, §10, §11

Assay [4] deals with Aspergillus niger ATCC 6275.
Description: as §1, §2
The microbial strain Aspergillus niger ATCC 6275, and a double-concentration Sabouraud broth liquid culture medium supplemented with polyoxyethylenated (20 OE) sorbitan monopalmitate (Tween 40 from Croda) and Phytagel© BioReagent were used (i.e. a mixture of 5 g of Phytagel+0.6 g of Tween 40+60 g of Sabouraud broth).
as §3, §4, §5, §6, §7, §8, §9, §10
In the two cases (test and control), the inoculum represents the concentration of the Aspergillus niger strain present in the final volume of the wells (200 μl) and is between 2 and 6×10^5 cfu/ml of Aspergillus niger.

Assay [5] deals with Candida albicans ATCC 10231.
Description: as §12, with “The microbial strain Pseudomonas aeruginosa ATCC 9027 and a double-concentration nutrient broth liquid culture medium were used.” left out

Where [6] appears, read: Staphylococcus aureus, growth <= 25%.
The mark [7] stands for this setting: Enterococcus faecalis, growth <= 25%.
Where [8] appears, read: Aspergillus niger, growth <= 25%.

For the molecule `CCCCCCCC(=O)OCC(O)CO` (centres unmarked) [B6, glyceryl caprylate], the microbial growth percentage in assay [1] (0.0625 B6 weight %) is on record as 83%; in assay [1] (0.125 B6 weight %), 87%; in assay [1] (0.25 B6 weight %), 53%; in assay [1] (0.5 B6 weight %), 48%; in assay [1] (1 B6 weight %), 9%; in assay [2] (0.1 B6 weight %), 123%. The microbial growth percentage is on record as 109% in assay [2] (0.2 B6 weight %); −40% in assay [2] (0.4 B6 weight %); 57% in assay [3] (0.125 B6 weight %); 22% in assay [3] (0.25 B6 weight %); 8% in assay [3] (0.5 B6 weight %); 38% in assay [3] (0.625 B6 weight %). Also, the “% MIC of B6 alone” value in assay [1] (setting [6]) is 1%; in assay [2] (Pseudomonas aeruginosa, growth <= 25%), 0.4%; in assay [3] (setting [7]), 0.5%.
As to `CC(=O)c1ccc(O)cc1` [B1, 4-hydroxyacetophenone], the microbial growth percentage in assay [4] (0.0625 B1 weight %) is recorded as 86%; in assay [4] (0.125 B1 weight %), 72%; in assay [4] (0.25 B1 weight %), 79%; in assay [4] (0.5 B1 weight %), 6%. Further, in assay [4] (setting [8]), the “% MIC of B1 alone” value stood at 0.5%.
With `Oc1cc(Cl)ccc1Oc1ccc(Cl)cc1Cl` [B2, 5-chloro-2-(2,4-dichlorophenoxy)phenol], the microbial growth percentage in assay [1] (0.125 B2 weight %) stood at 46%; in assay [1] (0.25 B2 weight %), 14%. The “% MIC of B2 alone” value in assay [1] (setting [6]) was determined as 0.25%.
As to `Cc1cc(O)cc(C)c1Cl` [B5, 4-chloro-3,5-dimethylphenol], the microbial growth percentage in assay [4] (0.0625 B5 weight %) is 99%; in assay [4] (0.125 B5 weight %), 103%; in assay [4] (0.25 B5 weight %) it was 31%; in assay [4] (0.5 B5 weight %), −6%; in assay [5] (0.0625 B5 weight %) it was 73%; in assay [5] (0.125 B5 weight %), 28%. The microbial growth percentage in assay [5] (0.25 B5 weight %) came to 1%. The “% MIC of B5 alone” value turned out to be 0.5% in assay [4] (setting [8]) and 0.25% in assay [5] (Candida albicans, growth <= 25%).
As to sorbitan caprylate [B3], the microbial growth percentage in assay [4] (0.025 B3 weight %) is on record as 50%; in assay [4] (0.05 B3 weight %), 30%; in assay [4] (0.1 B3 weight %), −2%; in assay [3] (0.125 B3 weight %) it was 134%; in assay [3] (0.25 B3 weight %) it was 61%; in assay [3] (0.5 B3 weight %), 62%. In addition, the microbial growth percentage in assay [3] (1 B3 weight %) stood at 2%. Further, the “% MIC of B3 alone” value stood at 0.1% in assay [4] (setting [8]) and 1% in assay [3] (setting [7]).

The record behind these values is patent US20220174947A1, “ANTIMICROBIAL MIXTURE CONTAINING 4-(3-ETHOXY-4-HYDROXYPHENYL)BUTAN-2-ONE AND AN ALCOHOL COMPOUND, AND COSMETIC COMPOSITION CONTAINING SAME” (L'OREAL, priority 2018, published 2022).
